In patent publication US20260297042A1, “BIARYLAMIDE DERIVATIVES AND THEIR USE AS PKMYT1 INHIBITORS” (CANCER RESEARCH TECHNOLOGY LIMITED, priority 2023, published 2026):

What was measured:
[1] = biological target: T1, WEE1 (Homo sapiens, UniProt P30291); test: Selectivity versus WEE1 assay (ADP-Glo enzymatic assay); type: biochemical; details: banded; for IC50: ADP-Glo, 15 nM WEE1, 60 minutes at 26° C.; for PKMYT1 vs. WEE1 selectivity: fold difference in selectivity for PKMYT1 over WEE1, ">N" = at least in this band but could be higher
T1 construct: purchased Thermo Fisher PR7373A
T1 sequence (P30291 whole entry): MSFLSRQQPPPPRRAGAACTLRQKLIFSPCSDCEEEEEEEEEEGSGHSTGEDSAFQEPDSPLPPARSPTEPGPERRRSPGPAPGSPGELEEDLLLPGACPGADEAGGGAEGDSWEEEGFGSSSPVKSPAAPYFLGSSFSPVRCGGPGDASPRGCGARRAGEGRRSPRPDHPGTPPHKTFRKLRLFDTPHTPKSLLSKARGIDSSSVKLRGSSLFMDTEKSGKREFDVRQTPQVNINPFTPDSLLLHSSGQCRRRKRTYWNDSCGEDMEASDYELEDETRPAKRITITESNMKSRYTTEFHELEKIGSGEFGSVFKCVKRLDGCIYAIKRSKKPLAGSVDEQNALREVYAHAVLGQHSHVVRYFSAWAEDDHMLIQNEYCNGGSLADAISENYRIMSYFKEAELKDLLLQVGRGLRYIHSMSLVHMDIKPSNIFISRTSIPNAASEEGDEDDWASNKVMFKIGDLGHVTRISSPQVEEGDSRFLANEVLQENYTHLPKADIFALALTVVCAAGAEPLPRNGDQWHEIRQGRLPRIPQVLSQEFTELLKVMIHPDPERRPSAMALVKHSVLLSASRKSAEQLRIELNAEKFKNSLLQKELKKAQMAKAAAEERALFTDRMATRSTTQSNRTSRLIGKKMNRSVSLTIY
Outline: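 Kinase at 15 nM final in 50 mM HEPES pH 7.5, 10 mM MgCl2, 1 mM EGTA, 0.01% Brij-35, 1% DMSO was started with 30 µM ATP and run 60 min at 26° C. ADP formed was read by ADP-Glo luminescence; IC50 came from dose-response curves.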

[2] = biological target: T2, Human PKMYT1 (Homo sapiens, UniProt Q99640); test: PKMYT1 biochemical ADP-Glo enzymatic assay; details: ADP-Glo; 15 nM PKMYT1 kinase domain, 500 µM ATP, 60 minutes at 26° C.; banded
T2 construct: Human PKMYT1 75-362 was cloned as a TEV cleavable 6xHis fusion; 6xHis (TEV cleavable) (cleaved yes); made in house; host or cells: bacterial cells
T2 sequence (Q99640 75-362): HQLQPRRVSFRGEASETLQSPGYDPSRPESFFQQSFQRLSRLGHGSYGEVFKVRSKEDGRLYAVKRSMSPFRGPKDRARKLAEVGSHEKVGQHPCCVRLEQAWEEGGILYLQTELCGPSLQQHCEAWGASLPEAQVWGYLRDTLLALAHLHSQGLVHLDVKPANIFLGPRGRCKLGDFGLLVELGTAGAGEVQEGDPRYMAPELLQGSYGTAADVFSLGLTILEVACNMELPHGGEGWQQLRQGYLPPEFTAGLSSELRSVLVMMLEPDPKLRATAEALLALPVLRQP
Outline: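 Intrinsic ATPase activity of E. coli-expressed, tag-cleaved human PKMYT1 kinase domain (75-362), 15 nM, with 500 µM ATP in HEPES pH 7.5/MgCl2/EGTA/Brij-35, 1% DMSO, 60 min at 26 °C. ADP formed was read by ADP-Glo Max luminescence; IC50 from 10-point, 3-fold dilution curves.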

IC50 [1] | PKMYT1 vs. WEE1 selectivity [1] | IC50 [2] | SMILES
1000 to 11000 nM | Y (1000-5000 fold) | < 50 nM | Cc1ccc(O)c(C)c1NC(=O)c1cnc(Nc2ccn(CC(=O)N3CC4(CCC4)C3)n2)s1 [BAA-199]
> 11000 nM | Z (>5000 fold) | < 50 nM | Cc1ccc(O)c(C)c1NC(=O)c1cnc(Nc2nn(C)c3cccnc23)s1 [BAA-210, N-(3-Hydroxy-2,6-dimethyl-phenyl)-2-[(1-methylpyrazolo[4,3-b]pyridin-3-yl)amino]thiazole-5-carboxamide]
> 11000 nM | >X (100-<1000 fold) | 50 to 1000 nM | Cc1ccc(O)c(C)c1NC(=O)c1cnc(NCC2CCN(C(=O)Cc3ccc(Cl)cc3)CC2)s1 [BAA-214, 2-[[1-[2-(4-chlorophenyl)acetyl]-4-piperidyl]methylamino]-N-(3-hydroxy-2,6-dimethyl-phenyl)thiazole-5-carboxamide]
> 11000 nM | W (10-<100 fold) | 1000 to 11000 nM | Cc1ccc(O)c(C)c1NC(=O)c1cnc(NCCCN2CCN(C)CC2)s1 [BAA-218, N-(3-Hydroxy-2,6-dimethyl-phenyl)-2-[3-(4-methylpiperazin-1-yl)propylamino]thiazole-5-carboxamide]
> 11000 nM | X (100-<1000 fold) | < 50 nM | Cc1ccc(O)c(C)c1NC(=O)c1cnc(Nc2ccn(CC(=O)N3CCNCC3)n2)s1 [BAA-222, N-(3-hydroxy-2,6-dimethylphenyl)-2-((1-(2-oxo-2-(piperazin-1-yl)ethyl)-1H-pyrazol-3-yl)amino)thiazole-5-carboxamide]
> 11000 nM | X (100-<1000 fold) | < 50 nM | Cc1ccc(O)c(C)c1NC(=O)c1cnc(Nc2ccn(CC(=O)N3C[C@H]4C[C@@H]3CN4)n2)s1 [BAA-223, 2-((1-(2-((1R,4R)-2,5-diazabicyclo[2.2.1]heptan-2-yl)-2-oxoethyl)-1H-pyrazol-3-yl)amino)-N-(3-hydroxy-2,6-dimethylphenyl)thiazole-5-carboxamide]
> 11000 nM | X (100-<1000 fold) | < 50 nM | Cc1ccc(O)c(C)c1NC(=O)c1cnc(Nc2ccn(CC(=O)N3C[C@@H](C)N[C@@H](C)C3)n2)s1 [BAA-227, 2-((1-(2-((3R,5S)-3,5-dimethylpiperazin-1-yl)-2-oxoethyl)-1H-pyrazol-3-yl)amino)-N-(3-hydroxy-2,6-dimethylphenyl)thiazole-5-carboxamide]
> 11000 nM | X (100-<1000 fold) | < 50 nM | Cc1ccc(O)c(C)c1NC(=O)c1cnc(Nc2ccn(CC(=O)NCCN3CCNCC3)n2)s1 [BAA-228, N-(3-hydroxy-2,6-dimethylphenyl)-2-((1-(2-oxo-2-((2-(piperazin-1-yl)ethyl)amino)ethyl)-1H-pyrazol-3-yl)amino)thiazole-5-carboxamide]
> 11000 nM | Y (1000-5000 fold) | < 50 nM | Cc1cc(Nc2ncc(C(=O)Nc3c(C)ccc(O)c3C)s2)n(CC(C)C)n1 [BAA-238, N-(3-hydroxy-2,6-dimethylphenyl)-2-((1-isobutyl-3-methyl-1H-pyrazol-5-yl)amino)thiazole-5-carboxamide]
1000 to 11000 nM | W (10-<100 fold) | 50 to 1000 nM | Cc1ccc(O)c(C)c1NC(=O)c1cnc(Nc2cc(C)n(CCC(N)=O)n2)s1 [BAA-239, 2-((1-(3-amino-3-oxopropyl)-5-methyl-1H-pyrazol-3-yl)amino)-N-(3-hydroxy-2,6-dimethylphenyl)thiazole-5-carboxamide]

Second part, the compound before the results:

SMILES | IC50 [1] | PKMYT1 vs. WEE1 selectivity [1] | IC50 [2]
Cc1ccc(O)c(C)c1NC(=O)c1cnc(Nc2ccn(CC(=O)N3CCN(C(=O)CC(C)C)CC3)n2)s1 [BAA-198, N-(3-hydroxy-2,6-dimethyl-phenyl)-2-[[1-[2-[4-(3-methylbutanoyl)piperazin-1-yl]-2-oxo-ethyl]pyrazol-3-yl]amino]thiazole-5-carboxamide] | > 11000 nM | Y (1000-5000 fold) | < 50 nM
Cc1ccc(O)c(C)c1NC(=O)c1cnc(Nc2ccn(CC(=O)N3CC4(CNC4)C3)n2)s1 [BAA-200, 2-[[1-[2-(2,6-Diazaspiro[3.3]heptan-2-yl)-2-oxo-ethyl]pyrazol-3-yl]amino]-N-(3-hydroxy-2,6-dimethyl-phenyl)thiazole-5-carboxamide 2,2,2-trifluoroacetate] | > 11000 nM | X (100-<1000 fold) | < 50 nM
Cc1ccc(O)c(C)c1NC(=O)c1cnc(Nc2cc(C)n(CC(=O)N3CCN(C)CC3)n2)s1 [BAA-201] | > 11000 nM | X (100-<1000 fold) | < 50 nM
CCNC(=O)Cn1nc(Nc2ncc(C(=O)Nc3c(C)ccc(O)c3C)s2)cc1C [BAA-202, 2-[[1-[2-(ethylamino)-2-oxo-ethyl]-5-methyl-pyrazol-3-yl]amino]-N-(3-hydroxy-2,6-dimethyl-phenyl)thiazole-5-carboxamide] | > 11000 nM | X (100-<1000 fold) | < 50 nM
Cc1ccc(O)c(C)c1NC(=O)c1cnc(Nc2cc(C)n(CC(=O)N3CCCC3)n2)s1 [BAA-203] | > 11000 nM | Y (1000-5000 fold) | < 50 nM
CCN(CC)C(=O)Cn1nc(Nc2ncc(C(=O)Nc3c(C)ccc(O)c3C)s2)cc1C [BAA-204, 2-[[1-[2-(diethylamino)-2-oxo-ethyl]-5-methyl-pyrazol-3-yl]amino]-N-(3-hydroxy-2,6-dimethyl-phenyl)thiazole-5-carboxamide] | > 11000 nM | Z (>5000 fold) | < 50 nM
Cc1cn(CC(=O)N2CCN(C)CC2)nc1Nc1ncc(C(=O)Nc2c(C)ccc(O)c2C)s1 [BAA-205, N-(3-hydroxy-2,6-dimethyl-phenyl)-2-[[4-methyl-1-[2-(4-methylpiperazin-1-yl)-2-oxo-ethyl]pyrazol-3-yl]amino]thiazole-5-carboxamide] | > 11000 nM | Y (1000-5000 fold) | < 50 nM
Cc1ccc(O)c(C)c1NC(=O)c1cnc(NCC2CCN(C(=O)CC(C)(C)C)CC2)s1 [BAA-212, 2-[[1-(3,3-Dimethylbutanoyl)-4-piperidyl]methylamino]-N-(3-hydroxy-2,6-dimethyl-phenyl)thiazole-5-carboxamide] | > 11000 nM | >X (100-<1000 fold) | 50 to 1000 nM
COc1ccc(CC(=O)N2CCC(CNc3ncc(C(=O)Nc4c(C)ccc(O)c4C)s3)CC2)cc1 [BAA-213, N-(3-Hydroxy-2.6-dimethyl-phenyl)-2-[[1-[2-(4-methoxyphenyl)acetyl]-4-piperidyl]methylamino]thiazole-5-carboxamide] | > 11000 nM | >X (100-<1000 fold) | 50 to 1000 nM
Cc1ccc(O)c(C)c1NC(=O)c1cnc(NCC2CCN(C(=O)CC(C)(C)O)CC2)s1 [BAA-215, N-(3-hydroxy-2,6-dimethyl-phenyl)-2-[[1-(3-hydroxy-3-methyl-butanoyl)-4-piperidyl]methylamino]thiazole-5-carboxamide] | > 11000 nM | >X (100-<1000 fold) | 50 to 1000 nM
Cc1ccc(O)c(C)c1NC(=O)c1sc(Nc2ccn(C)n2)nc1N [BAA-219, 4-Amino-N-(3-hydroxy-2,6-dimethyl-phenyl)-2-[(1-methylpyrazol-3-yl)amino]thiazole-5-carboxamide] | 1000 to 11000 nM | V (3-<10 fold) | 1000 to 11000 nM
CNc1ncc(C(=O)Nc2c(C)ccc(O)c2C)s1 [BAA-221, N-(3-Hydroxy-2,6-dimethyl-phenyl)-2-(methylamino)thiazole-5-carboxamide] | > 11000 nM | X (100-<1000 fold) | 50 to 1000 nM
Cc1ccc(O)c(C)c1NC(=O)c1cnc(Nc2ccn(CC(=O)N3CCC4(CCNC4)CC3)n2)s1 [BAA-225, N-(3-hydroxy-2,6-dimethylphenyl)-2-((1-(2-oxo-2-(2,8-diazaspiro[4.5]decan-8-yl)ethyl)-1H-pyrazol-3-yl)amino)thiazole-5-carboxamide] | > 11000 nM | X (100-<1000 fold) | < 50 nM
Cc1ccc(O)c(C)c1NC(=O)c1cnc(Nc2ccn(CC(=O)NCC3CCNCC3)n2)s1 [BAA-226] | > 11000 nM | X (100-<1000 fold) | < 50 nM
CCN(C(=O)C(C)(C)C)c1ccc(C)c(Nc2ncc(C(=O)Nc3c(C)ccc(O)c3C)s2)n1 [BAA-234, 2-((6-(N-ethylpivalamido)-3-methylpyridin-2-yl)amino)-N-(3-hydroxy-2,6-dimethylphenyl) thiazole-5-carboxamide] | 1000 to 11000 nM | X (100-<1000 fold) | < 50 nM
